Measurements from patent US20220054445A1, “THERAPEUTIC METHODS AND COMPOSITIONS FOR TREATING CANCER USING 6,8-BIS-BENZYLTHIO-OCTANOIC ACID AND AN AUTOPHAGY INHIBITOR” (Rafael Pharmaceuticals, Inc., priority 2018, published 2022).

Key:
[1] = Plasma pharmacokinetics and oral bioavailability of formulations; design: species or system BALB/c nude mice; conditions: mouse, in vivo
Protocol: Six groups of 16 BALB/c nude mice (8 males and 8 females) per group were administered 6,8-bis-benzylthio-octanoic acid in six different ways: (1) 5 μL/g IV injection (tail vein) of the triethanolamine/dextrose aqueous solution of Example 18 (25 mg/kg; 5 mL/kg; Ex. 18A); (2) 5 μL/g IP injection of the triethanolamine/dextrose aqueous solution of Example 18 (25 mg/kg; 5 mL/kg; 18A); (3) 5 μL/g oral administration of the Eudragit L100 SDD suspension of Example 18 (100 mg/kg; 5 mL/kg; 18B); (4) 5 μL/g oral administration of the HPMCAS-M SDD suspension of Example 18 (100 mg/kg; 5 mL/kg; 18C); (5) 5 μL/g oral administration of the 20 mg/mL 6,8-bis-benzylthio-octanoic acid suspension of Example 18 (100 mg/kg; 5 mL/kg; 18D); or (6) 10 μL/g oral administration of the 10 mg/mL SOLUTOL solution of Example 18 (100 mg/kg; 10 mL/kg; 18E). In each experiment, about 80 μL of blood was collected from one subgroup of 4 male and 4 female mice at 0.083, 1, 4, and 24 hours after dosing, and from the other subgroup of 4 male and 4 female mice at 0.5, 2, and 8 hours. Plasma from the collected blood samples was analyzed by LC-MS/MS for the presence of 6,8-bis-benzylthio-octanoic acid.

[2] = Pardee et al., Clin Cancer Res. 2014; cited from earlier work
HS-MM cells [3] = experiment: DALGreen autophagy detection in HS-MM cells; assay type: cell-based; conditions: 16 hours
Protocol: HS-MM cells (Sonobe H. et al., J. Pathol., 1993, 169, 317-322; Sonobe H. et al., J. Pathol., 1999, 187, 594-597) were cultured with Dulbecco's modified Eagle's medium (DMEM; Gibco Life Technologies, Grand Island, N.Y., USA) containing 10% heat-inactivated fetal bovine serum (FBS). Cells were incubated with […] autophagy detection agent (Dojindo Co., Kumamoto, Japan) according to the manufacturer's protocol (https://www.dojindo.com/TechnicalManual/Manual_[…].pdf). The […]-treated cells were then incubated with vehicle (DMEM+10% heat-inactivated FBS containing the same amount of DMSO and distilled water present in the corresponding CPI-613 and chloroquine experiments), CPI-613 (added […] of a 5 mg/mL solution of CPI-613 in DMSO per mL of medium to provide a 1 μg/mL concentration of CPI-613 in the medium), or the combination of CPI-613 (1 μg/mL as above) and chloroquine (added 2 μL of a 5 mg/mL solution of chloroquine in distilled water per mL of medium to provide a 10 μg/mL concentration of chloroquine in the medium) at 37° C. under 5% CO2 for 16 hours, and then visualized under a confocal fluorescence microscope (Leica TCS SP8; Leica Corporation, Germany) and analyzed with a Guava Easy-Cyte cell analyzer ([…], Calif., USA).

[4] = test system: BxPC-3 pancreatic cancer xenografts; experiment: Human pancreatic cancer xenograft, oral dosing; assay type: in vivo, CD-1 nude mice; conditions: oral dose of 100 mg/week for 4 weeks
Protocol: An acclimation period of 7 days was allowed between the arrival of the animal at the study site before tumor inoculation and experimentation. Mice were inoculated subcutaneously (SC) in the right flank with 2×10^6 human H460 NSCLC or BxPC3 pancreatic cancer cells that were suspended in 0.1 mL of Dulbeco's Phosphate Buffered Salt (PBS) solution using a 1 cc syringe with a 27-5/8 gauge needle. Tumor dimensions (length and width) were measured daily before, during and after treatment (using Vernier calipers) and the tumor volume was calculated using the prolate ellipsoid formula: (length×width^2)/2. Treatment with test or control articles began 8 days post tumor cell implantation when the tumor was approximately 300 mm^3.
A similar study was conducted in CD-1 nude mice (n=9) inoculated with 2×10^6 BxPC-3 cells. The study was initiated when tumors reached an average size of 150 mm^3 (day 0) and CPI-613 was administered at an oral dose of 100 mg/week for 4 weeks. A comparator arm (n=9) was conducted with IP treatment at a weekly dose of 25 mg/kg.

[5] = Animal studies of IV administration (toxicity); assay type: in vivo
Protocol: CPI-613 must be administered IV, via an IV catheter that is free flowing and free of air in the dead space of the IV catheter, to minimize vascular irritation, inflammation and acute toxicity of CPI-613. […] To avoid local reactions at and around the site of administration, CPI-613 must be administered via a central venous catheter.
CPI-613 must not be administered as a bolus, but by infusion, at a rate of ˜0.5 mL/min, via a central venous catheter with D5W running at a rate of about 125-150 mL/hr. This is to minimize potential acute toxicity of CPI-613, according to animal studies.

[6] = test system: human H460 NSCLC xenografts; experiment: Human non-small cell lung cancer xenograft, oral dosing; assay type: in vivo, CD1-Nu/Nu female mice; conditions: oral 100 mg/kg on day 8, 15, 22, 29 post implantation
Protocol: Human H460 NSCLC cells were obtained from American Type Cell Culture (ATCC) (catalog no. HTB-177, Manassas, Va.). These cells tested negative for viral contamination using the Mouse Antibody Production (MAP) test, performed by Charles River Labs Molecular Division, upon the receipt of the tumor cells from ATCC. The tumor cells were maintained at 37° C. in a humidified 5% CO2 atmosphere in T225 tissue culture flasks containing 50 mL of Roswell Park Memorial Institute (RPMI)-1640 solution with 10% Fetal Bovine Serum (FBS) and 2 mM L-glutamine. Cells were split at a ratio of 1:10 every 2-3 days by trypsinization and resuspended in fresh medium in a new flask. Cells were harvested for experiments in the same way at 70-90% confluency.
CD1-Nu/Nu female mice, ˜4-6 weeks old were obtained from Charles River Laboratories. Mice were housed 5 to a cage in a micro-isolator room in the Department of Animal Laboratory Research of New York State University (SUNY) at Stony Brook. Light-dark cycles were 12 h each daily, with light from 7 a.m. to 7 p.m. […]
An acclimation period of 7 days was allowed between the arrival of the animal at the study site before tumor inoculation and experimentation. […] Tumor dimensions (length and width) were measured daily before, during and after treatment (using Vernier calipers) and the tumor volume was calculated using the prolate ellipsoid formula: (length×width^2)/2. […]

K562 and MFL2 AML cells = experiment: LC3-II blot for induction of autophagy in AML cells; assay type: cell-based; conditions: CPI-613 200 μM, 4 hours
Text: Complete media (“Full”) and Hank's Balanced Salt Solution medium (HBSS) were used as negative and positive controls of autophagy, respectively.

HS-MM cells [7] = experiment: Annexin V / propidium iodide cell death staining in HS-MM cells; assay type: cell-based; conditions: necrostatin-1 5, 10 or 50 μM with CPI-613 1 μg/mL + chloroquine 10 μg/mL
Protocol: HS-MM cells (Sonobe H. et al., J. Pathol., 1993, 169, 317-322; Sonobe H. et al., J. Pathol., 1999, 187, 594-597) were cultured with Dulbecco's modified Eagle's medium (DMEM; Gibco Life Technologies, Grand Island, N.Y., USA) containing 10% heat-inactivated fetal bovine serum (FBS). Cells were incubated with vehicle (DMEM+10% heat-inactivated FBS containing the same amount of DMSO and distilled water present in the corresponding CPI-613, chloroquine, and necrostatin-1 experiments), chloroquine (10 μg/mL), CPI-613 (1 μg/mL or 10 μg/mL), the combination of chloroquine (10 μg/mL) and CPI-613 (100 ng/mL, 1 μg/mL, or 10 μg/mL), or the combination of chloroquine (10 μg/mL) and CPI-613 (1 μg/mL) in the presence of necrostatin-1 (5 μM, 10 μM, or 50 μM), and then double stained with a fluorescein isothiocyante (FITC)-conjugated Annexin V and propidium iodide (PI) (PromoCell GMbH, Heidelberg, Germany) followed by analysis with a confocal fluorescence microscope and cell analyzer. The chloroquine and CPI-613 were added to the media from 5 mg/mL stock solutions in distilled water or DMSO, respectively, as in Example 11. The necrostatin-1 was added to the media from a 5 mg/mL stock solution in DMSO.

O=C(O)CCCCC(CCSCc1ccccc1)SCc1ccccc1 (stereo not shown) [6,8-bis-benzylthio-octanoic acid]
oral bioavailability (conclusion in words) [1]: orally bioavailable | half-life after IV dosing [2]: 1 to 2 h | induction of autophagy (DALGreen fluorescence) (HS-MM cells [3]; CPI-613 1 μg/mL): induces autophagy in HS-MM cells | tumor growth effect [4]: especially pronounced | acute toxicity with extra air in dead space of IV catheter ([5]; accidental co-administration of air during IV administration, animal studies): potential to induce acute toxicity | local reaction on leakage into the perivascular space ([5]; in vivo, iv): can induce significant local inflammation | tumor growth versus 5% dextrose or untreated [6]: grew much more slowly | induction of autophagy (LC3-II blot) (K562 and MFL2 AML cells): induces autophagy in AML cells

CCN(CC)CCCC(C)Nc1ccnc2cc(Cl)ccc12 (stereo not shown) [chloroquine, reference compound]
blocking of CPI-613 autophagy induction (HS-MM cells [3]; chloroquine 10 μg/mL with CPI-613 1 μg/mL): autophagy induction can be blocked

CN1C(=O)C(Cc2c[nH]c3ccccc23)NC1=S (stereo not shown) [necrostatin-1]
effect on cell death induced by CPI-613 plus chloroquine (HS-MM cells [7]): did not affect cell death
